This note sets out measurements from ChEMBL document CHEMBL1201862, “PubChem BioAssay data set” (2004).

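These data come from cells grown in 96-well plates and exposed to compound for 48 hours at five concentrations. Abbreviation: GI50, concentration required for 50% inhibition of growth.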 Activity calls are given as the source filed them. Cut-off read from the data, not from the text of the source: active = GI50 up to about 1.1 µM and inactive = higher. Bounds are passed on as bounds.

Test systems include NCI-H23; EKVX; T47D; K562; HCC 2998; SF-295; SK-MEL-28; HCT-116; SNB-75; UO-31; OVCAR-5; MOLT-4; MDA-MB-435; SW-620; UACC-62; 786-0; M14; A498; BT-549.
What all share (experiment): DTP human tumour cell line panel, 48 h

As to `O=C(O)C(Cc1ccccc1)NCc1c(O)ccc2c(-c3ccccc3)cc(=O)oc12` (stereo not given), the GI50 with NCI-H23, in the assay on EKVX, in the assay on T47D, in the assay on K562, in the assay with HCC 2998 and with SF-295 was > 100 µM (inactive) in each case. Moreover, the GI50 with SK-MEL-28, in the assay with HCT-116, in the assay with SNB-75, with UO-31, with OVCAR-5 and with MOLT-4 was > 100 µM (inactive) throughout. Moreover, the GI50 in the assay with MDA-MB-435, in the assay on SW-620, in the assay on UACC-62, in the assay with 786-0 and with M14 was > 100 µM (inactive) throughout.
As to `O=c1cc(-c2ccccc2)oc2cc(OCCSCCCCCCCCCCSCCOc3ccc4c(=O)cc(-c5ccccc5)oc4c3)ccc12`, the GI50 in the assay on NCI-H23, in the assay on EKVX, with K562, with HCC 2998, in the assay with SF-295 and in the assay with SK-MEL-28 was > 100 µM (inactive) in each case. The GI50 (usually the concentration at which growth is held to half of that of the control) in the assay with HCT-116 was > 100 µM (inactive); in the assay with SNB-75, > 100 µM (inactive); in the assay on UO-31 it was > 100 µM (inactive); in the assay on MOLT-4 it was > 100 µM (inactive); with SW-620 it was > 100 µM (inactive); with UACC-62, 65.9 µM (inactive). Moreover, the GI50 was 73.5 µM (inactive) in the assay on 786-0 and > 100 µM (inactive) in the assay with M14.
For the compound `O=C(NC(Cl)(C(F)(F)F)C(F)(F)F)c1ccc(F)cc1`, the GI50 in the assay on NCI-H23, in the assay on EKVX, in the assay with T47D, with K562, in the assay on HCC 2998 and with SF-295 was > 100 µM (inactive) in each case. For the same compound, the GI50 with SK-MEL-28 was > 100 µM (inactive); with HCT-116, > 100 µM (inactive); with SNB-75, 0.789 µM (active); with UO-31, > 100 µM (inactive); with OVCAR-5, > 100 µM (inactive); in the assay on MOLT-4 it was > 100 µM (inactive). For the same compound, the GI50 in the assay with A498, with MDA-MB-435, with SW-620, in the assay with 786-0 and with M14 was > 100 µM (inactive) in each case.
As for `COc1nc2sc3c(c2c(=O)n1CCCSSCCCn1c(OC)nc2sc4c(c2c1=O)CCCC4)CCCC3`, the GI50 in the assay with NCI-H23, in the assay with EKVX, in the assay on T47D, with K562, in the assay on HCC 2998 and in the assay on SF-295 was > 100 µM (inactive) throughout. The GI50 with SK-MEL-28, with HCT-116, in the assay on SNB-75, with UO-31, with OVCAR-5 and with MOLT-4 was > 100 µM (inactive) each time. Besides, the GI50 with MDA-MB-435, in the assay on UACC-62, in the assay with 786-0 and in the assay on M14 was > 100 µM (inactive) each time.
In the case of `O=P1(O)c2ccccc2CCc2ccccc21`, the GI50 in the assay on NCI-H23, in the assay with EKVX, in the assay on K562, with HCC 2998, in the assay with SF-295 and with SK-MEL-28 was > 100 µM (inactive) in each case. The GI50 in the assay with HCT-116, with SNB-75, in the assay with UO-31, in the assay on MOLT-4, in the assay with MDA-MB-435 and with SW-620 was > 100 µM (inactive) in each case. In addition, the GI50 with UACC-62 is > 100 µM (inactive); in the assay with BT-549, 80.7 µM (inactive); in the assay with 786-0, > 100 µM (inactive); with M14, > 100 µM (inactive).
As for `COC(=O)/C(=C/c1ccc(OC)cc1)NC(=O)c1ccccc1`, the GI50 in the assay with NCI-H23, in the assay on EKVX, in the assay on K562, with HCC 2998, in the assay on SF-295 and in the assay on SK-MEL-28 was > 100 µM (inactive) each time. The GI50 with HCT-116, with SNB-75, with UO-31, in the assay with OVCAR-5, in the assay with A498 and with SW-620 was > 100 µM (inactive) throughout. Further, the GI50 with UACC-62, in the assay on 786-0 and in the assay on M14 was > 100 µM (inactive) throughout.
Regarding `CN(C)C12C=CC=CC3=C(c4ccccc4)C(c4ccccc4)=C(c4ccccc4)C31c1ccccc1C2` (stereo not given), the GI50 in the assay with EKVX, in the assay on T47D, with K562, in the assay with HCC 2998, in the assay on SF-295 and in the assay on SK-MEL-28 was > 100 µM (inactive) in each case. Moreover, the GI50 with HCT-116, in the assay with SNB-75, in the assay with UO-31, in the assay with OVCAR-5, in the assay with MOLT-4 and in the assay with MDA-MB-435 was > 100 µM (inactive) in each case. Moreover, the GI50 in the assay with SW-620, in the assay with 786-0 and with M14 was > 100 µM (inactive) throughout.
Regarding `COc1ccc(S(=O)(=O)Nc2ccc(-c3csc(N4C(=O)/C(=C/c5cccs5)N=C4c4ccccc4)n3)cc2)cc1Cl`, the GI50 is 21.5 µM (inactive) with NCI-H23; 19.9 µM (inactive) in the assay with T47D; 38.7 µM (inactive) with K562; 44.7 µM (inactive) in the assay with HCC 2998; 10.4 µM (inactive) in the assay on SF-295; 65.5 µM (inactive) in the assay with SK-MEL-28. In addition, the GI50 in the assay on HCT-116 is 30.9 µM (inactive); with SNB-75 it was 44.8 µM (inactive); in the assay with UO-31, 28.1 µM (inactive); in the assay on OVCAR-5, > 100 µM (inactive); in the assay on MOLT-4 it was 32.8 µM (inactive); with A498, 24.3 µM (inactive). Besides, the GI50 in the assay on MDA-MB-435 is 44 µM (inactive); in the assay on SW-620, 50.9 µM (inactive); with UACC-62 it was 31.1 µM (inactive); in the assay on 786-0 it was 57.5 µM (inactive); in the assay with M14 it was 34.7 µM (inactive).
Regarding `CCOC(=O)C(C)(C(=O)OCC)/C(Cl)=C\Cl`, the GI50 is > 100 µM (inactive) with NCI-H23; > 100 µM (inactive) with EKVX; > 100 µM (inactive) in the assay on T47D; > 100 µM (inactive) in the assay on K562; 0.0434 µM (active) with HCC 2998; > 100 µM (inactive) in the assay on SF-295. The GI50 with SK-MEL-28 was > 100 µM (inactive); in the assay with HCT-116, > 100 µM (inactive); in the assay with SNB-75, 66.1 µM (inactive); in the assay on UO-31, > 100 µM (inactive); in the assay on OVCAR-5, > 100 µM (inactive); with MOLT-4, > 100 µM (inactive). The GI50 with MDA-MB-435, with SW-620, with UACC-62, with 786-0 and in the assay on M14 was > 100 µM (inactive) in each case.
As to `C=C1CCCCCCCCCCC1[S+]([O-])c1ccccc1` (stereo not given), the GI50 in the assay on NCI-H23 was 58.5 µM (inactive); in the assay on EKVX it was > 100 µM (inactive); with T47D it was > 100 µM (inactive); in the assay with K562, 33.8 µM (inactive); with HCC 2998, > 100 µM (inactive); in the assay with SF-295, 42 µM (inactive). Besides, the GI50 was 50.2 µM (inactive) in the assay with SK-MEL-28; 30.5 µM (inactive) with HCT-116; 18.2 µM (inactive) with UO-31; 49.8 µM (inactive) with OVCAR-5; 21.8 µM (inactive) in the assay on MOLT-4; 38.6 µM (inactive) in the assay on A498. The GI50 with MDA-MB-435 was 23.9 µM (inactive); in the assay with UACC-62, 45.4 µM (inactive); in the assay on 786-0 it was 18.8 µM (inactive); in the assay with M14, 27.7 µM (inactive).
Regarding `CCCCCCCCCCCCCP(=O)(O)OCC`, the GI50 in the assay with NCI-H23, with EKVX, with HCC 2998, in the assay on SF-295, in the assay with SK-MEL-28 and with HCT-116 was > 100 µM (inactive) in each case. Moreover, the GI50 in the assay on SNB-75, in the assay with UO-31, in the assay on OVCAR-5, in the assay with A498, with SW-620 and in the assay with UACC-62 was > 100 µM (inactive) each time. For the same compound, the GI50 in the assay with 786-0 and in the assay on M14 was > 100 µM (inactive) throughout.
Consider `Cc1nc(-c2nc(C)c(C(=O)NNC(=O)C[n+]3ccccc3)s2)sc1C(=O)NNC(=O)C[n+]1ccccc1`, for which the GI50 was 45.7 µM (inactive) with NCI-H23; 97.3 µM (inactive) in the assay on EKVX; 78.2 µM (inactive) in the assay on K562; > 100 µM (inactive) with HCC 2998; 65.6 µM (inactive) in the assay with SF-295; > 100 µM (inactive) in the assay with SK-MEL-28. The GI50 with HCT-116 is 47 µM (inactive); in the assay with SNB-75, 25.5 µM (inactive); in the assay with UO-31 it was 25.9 µM (inactive); in the assay on OVCAR-5, > 100 µM (inactive); in the assay with MOLT-4, 22.7 µM (inactive); in the assay with A498 it was 58.6 µM (inactive). Also, the GI50 is > 100 µM (inactive) with SW-620, > 100 µM (inactive) in the assay on UACC-62, 35.9 µM (inactive) in the assay on 786-0 and > 100 µM (inactive) with M14.
